Source: patent publication US10197557B2, “Small molecules for endothelial cell activation” (The Regents of the University of California, priority 2011, dated 2019)
Entries after “also recorded” stand apart in the source; their conditions may differ.

Key:
human endothelial cells = assay: EC-PBMC co-culture assay, chemokines quantified by cytometric bead arrays; type: cell-based; conditions: for EC activation of octahydro-1,6-naphthyridin-4-one analogs (percent induction relative to IFNγ): focused library of 96 analogs, initial test (FIG. 6A, 6B)
Experimental: FIGS. 9A-9C show a further embodiment of the invention biological platform for the detection of activated endothelium. (A) Primary endothelial cells were seeded to confluence in a 96 well format and activated by IFNγ (10 ng/ml). After 5 hours, IFNγ was removed, wells were washed, and then primary human peripheral blood mononuclear cells (PBMC) were added at a ratio of 3:1 (PBMC:EC). 20-24 hours later, supernatants were removed and chemokines were quantified by cytometric bead arrays. (B) MIP1β production, but not MIP1α or IL8 levels, reliably detects endothelium activated by IFNγ. Chemokines produced in co-culture conditions with quiescent vs. activated EC; data represent the results from n=7 (MIP1α and MIP1β) and n=6 (IL8) independent experiments. (C) Chemical library screen for compounds that activate human endothelium. A 642 compound library was added following the same method as in A and B. Controls included DMSO and IFNγ on each plate. Supernatants were measured for chemokines by cytometric bead arrays.
Activation of the endothelium is intricately linked to innate immunity. […] Therefore we hypothesized that compounds that “activate” the endothelium could be identified indirectly—endothelium encountering activating compounds would gain the capacity to trigger chemokine production by monocytes. To test this hypothesis, we designed an EC-monocyte co-culture system amenable to high-throughput compound screening (FIG. 9A). […] Subsequently, EC were treated with DMSO (vehicle control), IFNγ (EC-activation control), and a collection of 642 compounds (final concentration, […]) (FIG. 9C). Of the 642 compounds, 37 (5.8%) promoted MIP1β production (FIG. 5A).
HUVEC were grown to 80-90% confluency in T150 flasks (Corning). On the day of experiments, HUVEC were harvested and plated at a confluent density in 96 well plates; these were either half or full volume plates, requiring 2.5-5×10^4 EC per well, respectively, in complete EBM-2 media (Lonza). After adherence for 2-3 hours, IFNγ (10 ng/ml), DMSO, or compound library (final concentration, […]) was added in incomplete EBM-2 media (Lonza). After 5 hours, stimuli were removed and cells were gently washed twice with RPMI (Invitrogen), followed by addition of 7.5-10×10^4 human PBMC in 10% FCS. For cytokine analysis, […] was removed at 24 hours for CBA analysis. The biological effects observed were not attributable to either LPS contamination, nor to cellular toxicity, as determined by flow cytometric analysis and 3-(4,5-dimethylhiazol-2-yl)-2,5-diphenyl tetrazolium bromide (MTT) assay.
[…] of supernatant from EC alone, PBMC alone, or co-culture conditions was collected for CBA analysis for IL8, MIP1α, and MIP1β. CBA was performed as per the manufacturer's recommendations (Becton Dickinson). Standard curves and all samples were acquired on a FacsCalibur flow cytometer and data was analyzed using FloJo software.

MIP1β = assay: Intracellular flow cytometry of EC-PBMC co-cultures (CD14, MIP1β); type: cell-based, human; conditions: PBMC added to activated EC (FIG. 5D)
Experimental: (§1) HUVEC were stimulated with IFNγ, DMSO, or compounds of interest (10 μM) for 5 hours. Stimuli were removed and cells were gently washed and media was replaced with 10% FCS for 24 hours. Cells were stained with anti-ICAM1 and anti-E-selectin, or appropriate isotype antibodies. For intracellular chemokine staining, stimulations of HUVEC were carried out as mentioned above with IFNγ, DMSO and compound of interest. After 8 hours of PBMC and HUVEC co-culture incubation, Golgi Plug (Becton Dickinson) was added to the culture and incubation carried out for an additional 16 hours. After the incubation cells were fixed, permeabilized and stained with anti-CD14 and anti-MIP1b or appropriate isotype controls. Samples were then analyzed with a FacsCalibur flow cytometer and subsequent data analysis was performed using FloJo software.

E-selectin = E-selectin expression on EC by flow cytometric analysis; type: cell-based, human; conditions: in comparison to vehicle control (FIG. 8C)
Experimental: as §1

HUVEC = assay: Transcriptome profiling (microarray) of treated EC, Ingenuity Pathway Analysis; type: cell-based, human; conditions: 10 μM, 5 hours; for gene probes induced in comparison to vehicle control: fold change >1.25, p-value <0.05
Experimental: HUVEC were grown as described above, and then plated at 1×10^6 in 6 well plates in complete EBM-2. […] After 5 hours, media was removed and RNA was extracted using Trizol (Invitrogen), followed by RNeasy Minelut Cleanup Kit (Qiagen). RNA was taken to the UCLA Microarray Core Center where it was processed using the Human Genome Affymetrix U133 Plus 2.0 Array. Microarray data was analyzed using dChip software (version Nov. 18, 2007) from the Cheng Li Lab at http://biosun1.harvard.edu/complab/dchip. For statistical analysis using dChip software, only gene probes that were minimally present in two of the three replicates were used, and parameters for significance were set at fold change >1.25, p-value <0.05. Total number of probes present for active analogue (D10): 30,228. […] Unsupervised dendrograms were created using dChip software. Genes with known function in immune regulation were selected based on published databases and gene functions identified by Gene Ontology or OMIM; dendrogram was created using dChip software.
Experimental results were compared using student t-tests; results were considered significant if p-value was <0.05. Canonical network analysis for all expressed probes in D10 and E2 datasets was performed by using Ingenuity Pathway Analysis software (version 6.0; Ingenuity Systems).

Row | Compound | EC activation of octahydro-1,6-naphthyridin-4-one analogs (percent induction relative to IFNγ) (human endothelial cells) | further results
1 | CCOc1cc(-c2ccccc2)nc2c1CN(S(=O)(=O)c1ccc(C)cc1)[C@H](c1cccc(Cl)c1)C2 [G9] | inactive | 
2 | Cc1ccc(S(=O)(=O)N2CC[C@H]3[C@@H](C2)C(=O)C[C@@H](c2ccccc2)N3S(=O)(=O)c2ccc(C)cc2)cc1 [H6] | did not affect the naphthyridinone's EC-activation; also recorded: active | 
3 | Cc1ccc([C@@H]2C[C@H]3[C@@H](CN2S(=O)(=O)c2ccc(C)cc2)C(=O)C[C@@H](c2ccc(C)cc2)N3S(=O)(=O)c2ccc(C)cc2)cc1 [D6] | active | 
4 | COc1ccc([C@@H]2CC(=O)[C@@H]3CN(S(=O)(=O)c4ccc(C)cc4)[C@H](c4ccccc4)C[C@@H]3N2S(=O)(=O)c2ccccc2)cc1 [D5] | did not exhibit EC-activation; also recorded: inactive | 
5 | COc1ccc([C@@H]2CC(=O)[C@@H]3CN(S(=O)(=O)c4ccc(C)cc4)[C@H](c4ccccc4F)C[C@@H]3N2S(=O)(=O)c2ccccc2)cc1 [E8] | did not exhibit EC-activation; also recorded: inactive | 
6 | CCO[C@H]1C[C@@H](c2ccccc2)N(S(=O)(=O)c2ccc(C)cc2)[C@H]2C[C@@H](c3cccc(Cl)c3)N(S(=O)(=O)c3ccc(C)cc3)C[C@@H]12 [2B7] | active | 
7 | COc1ccc([C@@H]2CC(=O)[C@@H]3CN(S(=O)(=O)c4ccc(C)cc4)[C@H](c4ccc(C)cc4)C[C@@H]3N2S(=O)(=O)c2ccccc2)cc1 [D9] | did not exhibit EC-activation; also recorded: inactive | 
8 | Cc1ccc(S(=O)(=O)N2C[C@H]3C(=O)C[C@@H](c4ccccc4)N(S(C)(=O)=O)[C@H]3C[C@H]2c2ccccc2)cc1 [H11] | lost their activity; also recorded: inactive | 
9 | interferon gamma [IFNγ] |  | MIP1α production in co-culture (human endothelial cells; treated EC co-cultured with PBMC (FIG. 10B)): comparable levels; IL8 production from monocytes in co-culture (human endothelial cells; treated EC co-cultured with PBMC, in comparison to DMSO (FIG. 10A)): inhibited; dominant producers of MIP1β in co-culture (MIP1β): CD14+ monocytes
10 | COc1ccc([C@@H]2C[C@H]3[C@@H](CN2S(=O)(=O)c2ccccc2)C(=O)C[C@@H](c2ccc(OC)cc2)N3S(=O)(=O)c2ccccc2)cc1 [F10] | did not exhibit EC-activation; also recorded: inactive | 
11 | Cc1ccc([C@@H]2C[C@H]3[C@@H](CN2S(=O)(=O)c2ccccc2)C(=O)C[C@@H](c2ccccc2)N3S(=O)(=O)c2ccc(C)cc2)cc1 [C8] | active | 
12 | COc1ccc([C@@H]2CC(=O)[C@@H]3CN(S(=O)(=O)c4ccc(Cl)cc4)[C@H](c4ccc(C)cc4)C[C@@H]3N2S(=O)(=O)c2ccccc2)cc1 [F7] | did not exhibit EC-activation; also recorded: inactive | 
13 | Cc1ccc(S(=O)(=O)N2C[C@H]3C(=O)C[C@@H](c4ccccc4)N(S(=O)(=O)c4ccc(C)cc4)[C@H]3C[C@H]2c2ccccc2F)cc1 [E3] | active | 
14 | Cc1ccc(S(=O)(=O)N2C[C@H]3[C@@H](O)C[C@@H](c4ccccc4)N(S(=O)(=O)c4ccc(C)cc4)[C@H]3C[C@H]2c2cccc(Cl)c2)cc1 [2B6] | active | 
15 | CCc1ccc([C@@H]2C[C@H]3[C@@H](CN2S(=O)(=O)c2ccc(C)cc2)C(=O)C[C@@H](c2ccc(Cl)cc2)N3S(=O)(=O)c2ccc(C)cc2)cc1 [D11] | active | 
16 | CCc1ccc([C@@H]2C[C@H]3[C@@H](CN2S(=O)(=O)c2ccc(C)cc2)C(=O)C[C@@H](c2ccc(CC)cc2)N3S(=O)(=O)c2ccc(C)cc2)cc1 [D10] | active | E-selectin expression levels (protein) (E-selectin): markedly enhanced; gene probes induced in comparison to vehicle control (HUVEC; EC): 201 gene probes; canonical pathways engaged (Ingenuity Pathway Analysis) (HUVEC; induced genes of EC): 32 canonical pathways; E-selectin gene induction (HUVEC; microarray, EC): uniquely induced
17 | CCc1ccc([C@@H]2C[C@H]3[C@@H](CN2S(=O)(=O)c2ccc(C)cc2)C(=O)C[C@@H](c2ccc(OC)cc2)N3S(=O)(=O)c2ccccc2)cc1 [E2] | some activity; also recorded: inactive | gene probes induced in comparison to vehicle control (HUVEC; EC): 49 gene probes; networks related to immune regulation activated (HUVEC; induced genes of EC): did not activate any networks related to immune regulation; EC activation, confirmatory studies (human endothelial cells; validation of analogs, FIG. 6C, two independent experiments in triplicate wells): relatively inactive
18 | COc1ccc([C@@H]2C[C@H]3[C@@H](CN2S(=O)(=O)c2ccccc2)C(=O)C[C@@H](c2ccc(C)cc2)N3S(=O)(=O)c2ccc(C)cc2)cc1 [C9] | active | 
19 | Cc1ccc(S(=O)(=O)N2[C@H](c3ccccc3)CC(=O)[C@@H]3CN(S(C)(=O)=O)[C@H](c4ccccc4)C[C@@H]32)cc1 [2B2] | lost their activity; also recorded: inactive | 
